From PubChem BioAssay AID330 (DTP/NCI, 2004)
“And” between values parts separate entries of the source, which are not always exact repeats. Identical values can stand only once. Inconclusive results and toxic doses are left out. How the source made its calls: active means survival T/C of 150% or more; inactive means T/C below 125% in these data.

Test system: P388 leukemia ip, CD2F1 mice, survival T/C
Test: NCI In Vivo Anticancer Drug Screen. Data for tumor model P388 Leukemia (intraperitoneal) in CD2F1 (CDF1) mice
Conditions: endpoint: median survival time, higher = longer survival
Method in brief: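 Mice carrying the transplanted tumor received test compound or vehicle. Survival was recorded in each group, and the value is the treated-group measurement divided by that of the vehicle-treated control group.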

[1] = dose: 12.5 mg/kg/injection, schedule: Q01DX009 (ip), vehicle: Klucel (hydroxypropylcellulose) (HPC)
[2] = dose: 25.0 mg/kg/injection, schedule: Q01DX009 (ip), vehicle: Klucel (hydroxypropylcellulose) (HPC)
[3] = dose: 50.0 mg/kg/injection, schedule: Q01DX009 (ip), vehicle: Klucel (hydroxypropylcellulose) (HPC)
[4] = dose: 100.0 mg/kg/injection, schedule: Q04DX002 (ip), vehicle: Klucel (hydroxypropylcellulose) (HPC)
[5] = dose: 200.0 mg/kg/injection, schedule: Q04DX002 (ip), vehicle: Klucel (hydroxypropylcellulose) (HPC)
[6] = dose: 400.0 mg/kg/injection, schedule: Q04DX002 (ip), vehicle: Klucel (hydroxypropylcellulose) (HPC)
[7] = dose: 50.0 mg/kg/injection, schedule: Q01DX005 (ip), vehicle: saline with Tween-80
[8] = dose: 100.0 mg/kg/injection, schedule: Q01DX005 (ip), vehicle: saline with Tween-80
[9] = dose: 200.0 mg/kg/injection, schedule: Q01DX005 (ip), vehicle: saline with Tween-80
[10] = dose: 50.0 mg/kg/injection, schedule: Q01DX005 (ip), vehicle: saline
[11] = dose: 100.0 mg/kg/injection, schedule: Q01DX009 (ip), vehicle: Klucel (hydroxypropylcellulose) (HPC)
[12] = dose: 200.0 mg/kg/injection, schedule: Q01DX009 (ip), vehicle: Klucel (hydroxypropylcellulose) (HPC)
[13] = dose: 12.5 mg/kg/injection, schedule: Q01DX009 (ip), vehicle: saline
[14] = dose: 25.0 mg/kg/injection, schedule: Q01DX009 (ip), vehicle: saline
[15] = dose: 50.0 mg/kg/injection, schedule: Q01DX009 (ip), vehicle: saline with Tween-80
[16] = dose: 50.0 mg/kg/injection, schedule: Q01DX009 (ip), vehicle: saline
[17] = dose: 200.0 mg/kg/injection, schedule: Q01DX009 (ip), vehicle: saline with Tween-80
[18] = dose: 100.0 mg/kg/injection, schedule: Q01DX009 (ip), vehicle: saline with Tween-80
[19] = dose: 60.0 mg/kg/injection, schedule: Q01DX005 (ip), vehicle: saline with Tween-80
[20] = dose: 120.0 mg/kg/injection, schedule: Q01DX005 (ip), vehicle: saline with Tween-80
[21] = dose: 240.0 mg/kg/injection, schedule: Q01DX005 (ip), vehicle: saline with Tween-80
[22] = dose: 12.5 mg/kg/injection, schedule: Q01DX005 (ip), vehicle: saline with Tween-80
[23] = dose: 25.0 mg/kg/injection, schedule: Q01DX005 (ip), vehicle: saline with Tween-80

Measured: T/C

Cc1ccc(-n2c(COc3c(C)cccc3C)n[nH]c2=S)cc1
inactive: [1] 100 % of control | [2] 100 % of control | dose: 50.0 mg/kg/injection, schedule: Q01DX005 (ip), vehicle: Klucel (hydroxypropylcellulose) (HPC) 90 % of control | [3] 109 % of control | dose: 200.0 mg/kg/injection, schedule: Q01DX005 (ip), vehicle: Klucel (hydroxypropylcellulose) (HPC) 89 % of control

c1ccc2c3c(ccc2c1)-c1ccc2ccccc2c1OP1(=NP(N2CC2)(N2CC2)=NP(N2CC2)(N2CC2)=N1)O3
inactive: [4] 100 % of control | [5] 99 % of control | [6] 103 % of control

CC1=C(C)/C(=C/c2ccccn2)NC1=O
inactive: dose: 60.0 mg/kg/injection, schedule: Q01DX005 (ip), vehicle: Klucel (hydroxypropylcellulose) (HPC) 98 % of control | dose: 120.0 mg/kg/injection, schedule: Q01DX005 (ip), vehicle: Klucel (hydroxypropylcellulose) (HPC) 105 % of control | dose: 240.0 mg/kg/injection, schedule: Q01DX005 (ip), vehicle: Klucel (hydroxypropylcellulose) (HPC) 98 % of control

COC(=O)C12CCc3cc(OC)ccc3C1=CC(=O)C2 (configuration not stated)
inactive: dose: 50.0 mg/kg/injection, schedule: Q04DX003 (ip), vehicle: saline with Tween-80 101 % of control | dose: 100.0 mg/kg/injection, schedule: Q04DX003 (ip), vehicle: saline with Tween-80 105 % of control | dose: 200.0 mg/kg/injection, schedule: Q04DX003 (ip), vehicle: saline with Tween-80 100 % of control | dose: 400.0 mg/kg/injection, schedule: Q04DX003 (ip), vehicle: saline with Tween-80 100 % of control

COCCOCCOCCOCCO
inactive: [7] 102 % of control | [8] 100 % of control | [9] 104 % of control

Nc1nnc2nc(C(C(=O)c3ccccc3)c3nc4nnc(N)n4[nH]c3=O)c(=O)[nH]n12
inactive: [10] 102 % of control | dose: 100.0 mg/kg/injection, schedule: Q01DX005 (ip), vehicle: saline 96 % of control | dose: 200.0 mg/kg/injection, schedule: Q01DX005 (ip), vehicle: saline 97 % of control

CC1=CN2C3=NCCN3C3=[N+](C)CCN3C2C=C1 (configuration not stated)
inactive: dose: 12.5 mg/kg/injection, schedule: Q01DX005 (ip), vehicle: saline 104 % of control | dose: 25.0 mg/kg/injection, schedule: Q01DX005 (ip), vehicle: saline 101 % of control | [10] 100 % of control and 112 % of control

CCOC(=O)C1(C(=O)OCC)CCC1
inactive: [3] 100 % of control | [11] 92 % of control | [12] 96 % of control | dose: 400.0 mg/kg/injection, schedule: Q01DX009 (ip), vehicle: Klucel (hydroxypropylcellulose) (HPC) 101 % of control

C=CC(C)(C)[N+](C)(C)C
inactive: [13] 99 % of control | [14] 102 % of control

O=C1Nc2ccccc2C1(N1CCCCC1)N1CCCCC1
inactive: [13] 99 % of control | [14] 90 % of control | [15] 101 % of control | [16] 92 % of control | [17] 86 % of control

CO[C@H]1/C=C/O[C@@]2(C)Oc3c(C)c(O)c4c(O)c(c(/C=N/N5C(C)CN(Cc6ccc(C#N)cc6)CC5C)c(O)c4c3C2=O)NC(=O)/C(C)=C\C=C\[C@H](C)[C@H](O)[C@@H](C)[C@@H](O)[C@@H](C)[C@H](OC(C)=O)[C@@H]1C (some centres not stated)
inactive: [1] 93 % of control | dose: 12.5 mg/kg/injection, schedule: Q01DX009 (ip), vehicle: saline with Tween-80 107 % of control | [2] 87 % of control | dose: 25.0 mg/kg/injection, schedule: Q01DX009 (ip), vehicle: saline with Tween-80 92 % of control | [3] 86 % of control | [15] 100 % of control and 95 % of control | [11] 107 % of control | [18] 113 % of control | [12] 107 % of control

O=C1N=C2SCCCN2C1(c1ccccc1)c1ccccc1
inactive: [19] 97 % of control | [20] 92 % of control | [21] 100 % of control

C=C(C)C(=O)Nc1ccc(NS(=O)(=O)c2ccc(C(C)CC)cc2)c(O)c1 (configuration not stated)
inactive: dose: 50.0 mg/kg/injection, schedule: Q01DX009 (ip), vehicle: saline + alcohol 101 % of control | dose: 100.0 mg/kg/injection, schedule: Q01DX009 (ip), vehicle: saline + alcohol 106 % of control | dose: 200.0 mg/kg/injection, schedule: Q01DX009 (ip), vehicle: saline + alcohol 106 % of control

O=[N+]([O-])c1ccc(OS(=O)(=O)/C=C/c2ccccc2)cc1
inactive: dose: 100.0 mg/kg/injection, schedule: Q01DX001 (ip), vehicle: Klucel (hydroxypropylcellulose) (HPC) 99 % of control | dose: 200.0 mg/kg/injection, schedule: Q01DX001 (ip), vehicle: Klucel (hydroxypropylcellulose) (HPC) 100 % of control | dose: 400.0 mg/kg/injection, schedule: Q01DX001 (ip), vehicle: Klucel (hydroxypropylcellulose) (HPC) 94 % of control

O=c1c(CO)c(-c2ccccc2)oc2ccccc12
inactive: [4] 115 % of control | [5] 98 % of control | [6] 101 % of control

CC(C)(O)/C=C/C(=O)C(C)(O)C1C(O)CC2(C)C3CC=C4C(CC(=O)C(O)C4(C)C)C3(C)C(=O)CC12C (configuration not stated)
inactive: dose: 0.5 mg/kg/injection, schedule: Q01DX009 (ip), vehicle: saline + alcohol 119 % of control | dose: 1.0 mg/kg/injection, schedule: Q01DX009 (ip), vehicle: saline + alcohol 119 % of control | dose: 2.0 mg/kg/injection, schedule: Q01DX009 (ip), vehicle: saline + alcohol 121 % of control and 120 % of control

CCCCCCCC1SCC(=O)N1c1nncs1 (configuration not stated)
inactive: [19] 94 % of control | [20] 94 % of control | [21] 91 % of control

CCN(CC)CCOc1ccc(C2=C(c3ccc(OC)cc3)Cc3cc(OC)ccc32)cc1
inactive: dose: 6.25 mg/kg/injection, schedule: Q01DX005 (ip), vehicle: saline with Tween-80 101 % of control | [22] 101 % of control | [23] 105 % of control | [7] 106 % of control | [8] 106 % of control | [9] 102 % of control

C=C1C(=C)C2OC1c1cc3c(cc12)C(=O)C=CC3=O
inactive: [22] 100 % of control | [23] 91 % of control

Fc1ccc(NP(=S)(Nc2ccc(F)cc2F)Nc2ccc(F)cc2F)c(F)c1
inactive: dose: 25.0 mg/kg/injection, schedule: Q04DX002 (ip), vehicle: saline with Tween-80 101 % of control | dose: 50.0 mg/kg/injection, schedule: Q04DX002 (ip), vehicle: saline with Tween-80 104 % of control | dose: 100.0 mg/kg/injection, schedule: Q04DX002 (ip), vehicle: saline with Tween-80 102 % of control and 105 % of control

C[C@]12CCC(=O)C=C1CC[C@H]1[C@@H]3C[C@@H](O)[C@](O)(C(=O)CO)[C@@]3(C)C[C@H](O)[C@@]12F
inactive: [14] 109 % of control | [16] 109 % of control | dose: 100.0 mg/kg/injection, schedule: Q01DX009 (ip), vehicle: saline 109 % of control

CN(/C(=N/C(=S)NCc1ccccc1)SCc1ccccc1)c1ccccc1
inactive: [7] 94 % of control | [8] 86 % of control

C[n+]1ccccc1-c1ccc[n+](CCCC[n+]2cccc(-c3cccc[n+]3C)c2)c1
inactive: [19] 106 % of control | [20] 116 % of control

CC(=O)OC/C=C(C)/C=C/C=C(C)/C=C/C1=C(C)CCCC1(C)C
inactive: [9] 95 % of control | dose: 400.0 mg/kg/injection, schedule: Q01DX005 (ip), vehicle: saline with Tween-80 97 % of control | dose: 800.0 mg/kg/injection, schedule: Q01DX005 (ip), vehicle: saline with Tween-80 97 % of control | dose: 1600.0 mg/kg/injection, schedule: Q01DX005 (ip), vehicle: saline with Tween-80 101 % of control

CC(C)(C)CC(C)(C)c1ccc(OCc2ccc(F)cc2)cc1
inactive: [15] 99 % of control | [18] 95 % of control | [17] 98 % of control
